In patent publication US20240368178A1, “IMIDAZOCYCLIC COMPOUND AND APPLICATION THEREOF” (DONGBAO PURPLE STAR (HANGZHOU) BIOPHARMACEUTICAL CO., LTD., priority 2021, published 2024):

What was measured:
[1] = biological target: Human-GLP-1 receptor (Homo sapiens (Human), UniProt P43220); test: In vitro cell activity assay (cAMP, HEK293 GLP-1 cells); format: cell-based; details: cAMP detection
Method: Experimental Example 1: In Vitro Cell Activity Assay
The host cell HEK293 for GLP-1 was constructed by WuXi AppTec (Shanghai) Co., Ltd.
cAMP Detection Kit, Cisbio (Cat #62AM4PEJ); 1M HEPES, Invitrogen (Cat #15630-106); 1×HBSS, Invitrogen (Cat #14025); BSA, Sigma (Cat #B2064); IBMX, Sigma (Cat #I5879); Exenatide, Hao Yuan (HY-13443A).
The compounds were prepared into a working solution with a concentration of 30 μM using DMSO. In this assay, each sample was used in an amount of 5 μL.
• 24.5 mL of Hanks Buffer Saline Solution (HBSS), final concentration: lx; • 125 μL of HEPES 1M, final concentration: 5 mM; • 333 μL of 7.5% BSA Solution, final concentration: 0.1%; • 25 μL of IBMX 500 mmol/L, final concentration: 0.5 mmol/L.
Preparation of cAMP assay reagent: 250 μL of cAMP-D2 and 250 μL of anti-cAMP cryptate reagent were added to 4 mL of lysis buffer and mixed gently.
The compound to be tested was diluted 3-fold at 10 points with a starting concentration of 30 μM, and the dilution was completed using Bravo.
Exenatide, used as a control compound, was diluted 3-fold at 10 points with a starting concentration of 500 nM, and the dilution was completed using Bravo. […]
• 1) A GLP-1 cell cryopreservation tube was rapidly thawed in a 37° C. water bath. • 2) The cell suspension was transferred to a 15 mL Transfer centrifuge tube and gently rinsed with 10 mL of HBSS. • 3) The centrifuge tube was centrifuged at 1000 rpm for 1 minute at room temperature. • 4) The supernatant was discarded. • 5) The cells at the bottom were gently dispersed, then rinsed with 10 mL of HBSS, centrifuged to sedimentation, and finally resuspended in the experimental buffer. • 6) The cell density and activity were measured using Vi-cell. • 7) The concentration of GLP-1 cells was diluted to 2.0*105/mL with the experimental buffer. • 8) […] of the diluted cell suspension was transferred to the OptiPlate-384 plate. • 9) The plate was incubated at room temperature for 30 minutes. […]
TopSeal-A was removed and the result was read in EnVision.

[2] = biological target: CYP2C19 (Homo sapiens (Human), UniProt P33261); test: Time-dependent inhibition (TDI) of CYP2C19 in human liver microsomes; format: in vitro ADME
Method: The time-dependent inhibitory effect of the test compound on the activity of human liver microsomal cytochrome P450 isoenzyme CYP2C19 was determined.
The experiment was divided into two groups. In the first group, human liver microsomes (HLM) were used as the incubation system. The test articles with a series of concentrations were added to the incubation system, followed by the addition of a coenzyme factor (NADPH) solution. The preincubation was carried out at 37° C. for 30 minutes. After preincubation, a probe substrate solution was added thereto. After a certain period of incubation, the reaction was terminated. The amount of probe substrate metabolites generated in the incubation solution was determined, and the enzyme activity was calculated. In the second group, human liver microsomes (HLM) were used as the incubation system. The test articles with a series of concentrations were added to the incubation system, followed by the addition of potassium phosphate buffer. The preincubation was carried out at 37° C. for 30 minutes. After preincubation, a mixture of NADPH and the probe substrate was added thereto. After a certain period of incubation, the reaction was terminated. The amount of probe substrate metabolites generated in the incubation solution was determined, and the enzyme activity was calculated. […]
Then, 147.5 μL of human liver microsomal working solution was added to the reaction plate, and the reaction plate was placed on ice for use; at this time, 2.50 μL of the test compound (N=1) and the working solution (N=2) of the positive control inhibitor at various concentrations were added to the corresponding wells, and the corresponding organic solvent was added to the group without inhibitors (test compound or positive inhibitor); the reaction plate was incubated for 10 minutes at 37° C., and then 50.0 μL of NADPH solution or potassium phosphate buffer was added to reaction wells of the first or second group, respectively, to start the reaction; the reaction plate was pre-incubated at 37° C. for 30 minutes; 50.0 μL of the substrate solution or a mixture of NADPH and the substrate was added to the reaction wells of the first or second group, respectively, to start the reaction. 20 minutes later, 250 μL of precooled acetonitrile solution (containing internal standards of 200 ng/mL tolbutamide and labetalol) was added to terminate the reaction; the reaction plate was placed on a shaker and shaken for 10 minutes to mix uniformly; then, the plate was centrifuged for 20 minutes at 4° C. and 4000 rpm; 200 μL of the supernatant was added to 200 μL of water to dilute the sample; the plate was finally sealed and shaken for 10 minutes to mix uniformly; the sample was then analyzed by LC/MS/MS.

[3] = test system: human hepatocytes; test: HMS CLint (liver) hepatocyte metabolic stability, human; format: in vitro ADME
Method: (§1) Experimental purpose: to test the metabolic stability of the test sample in human and rat liver cells.
(§2) • (1) test compound (10 mM), reference substance: 7-ethoxycoumarin (30 mM), 7-hydroxycoumarin (reference substance, 30 mM); • mouse hepatocytes with cell viability of 73.8%, supplier Cat No.: BioreclamationlVTM005052; • rat hepatocytes with cell viability of 78.3%, supplier Cat No.: BioreclamationlVTM00005-T; • canine hepatocytes with cell viability of 80.2%, supplier Cat No.: BioreclamationlVTM00205; • monkey liver cells with cell viability of 80.9%, supplier Cat No.: RILD HP—SXH-02M; • human hepatocytes with cell viability of 94.6%, supplier Cat No.: Bioreclamation IVTX008001. • (2) Buffer system:
(§3) Thawing medium: Williams' medium E containing 5% fetal bovine serum, 30% Percoll solution, and other auxiliary materials.
(§4) Incubation medium: Williams' medium E (without phenol red) containing 2 mM L-glutamine and 25 mM 4-(2-hydroxyethyl)-1-piperazineethanesulfonic acid.
(§5) Termination solution: acetonitrile containing 200 ng/mL tolbutamide and labetalol as internal standard. […]
(§6) The residual rates of the test compound and the control compound were determined using the following formula: […]
(§7) The elimination rate constant (k) of the test compound and the control compound in hepatocytes was calculated by plotting the logarithm of the residual rate against time. […]

[4] = test system: monkey liver cells; test: HMS CLint (liver) hepatocyte metabolic stability, cynomolgus monkey; format: in vitro ADME; details: cynomolgus monkey hepatocytes
Method: as §1, §2, §3, §4, §5, §6, §7

[5] = test system: canine hepatocytes; test: HMS CLint (liver) hepatocyte metabolic stability, dog; format: in vitro ADME
Method: as §1, §2, §3, §4, §5, §6, §7

[6] = test system: rat hepatocytes; test: HMS CLint (liver) hepatocyte metabolic stability, rat; format: in vitro ADME
Method: as §1, §2, §3, §4, §5, §6, §7

[7] = In vivo PK parameter testing in rats; parameters: species or system SD rat; details: male SD rats
Method: (§8) Male SD rats and male cynomolgus monkeys were used as test animals, and the plasma concentration of the compound was determined and the pharmacokinetic behavior was evaluated after a single oral administration.
Two groups of healthy rats (fasted) were administered by intravenous injection (IV) and oral gavage (PO), each group with 2 rats. The vehicle was a mixture of 20% PEG400, 10% solutol, and 70% water. After mixing the compound to be tested with the vehicle, the mixture was vortexed and sonicated to prepare clear solutions of 0.2 mg/mL and 0.5 mg/mL. The intravenous injection dose for rats was 1.0 mg/kg, and the oral gavage dose was 5.0 mg/kg. After administration, the whole blood was collected at the time points of 0.083 hours, 0.25 hours, 0.5 hours, 1.0 hour, 2.0 hours, 4.0 hours, 8.0 hours, 12.0 hours, and 24.0 hours. Plasma was prepared from the whole blood and analyzed for drug concentration by LC-MS/MS.

[8] = In vivo PK parameter testing in cynomolgus monkeys; parameters: species or system cynomolgus monkey; details: male cynomolgus monkeys
Method: as §8
Two groups of healthy male cynomolgus monkeys (fasted) were administered by intravenous injection and oral gavage, each group with 2 monkeys. The vehicle was a 20% hydroxypropyl-β-cyclodextrin aqueous solution. The compound to be tested 002 was mixed with the vehicle, then vortexed, and sonicated to prepare clear solutions of 1.0 mg/mL and 2.0 mg/mL. The intravenous injection dose was 1.0 mg/kg, and the oral gavage dose was 2.0 mg/kg. The compound to be tested 003 was mixed with the vehicle, then vortexed, and sonicated to prepare clear solutions of 0.25 mg/mL and 10.0 mg/mL. The intravenous injection dose was 0.5 mg/kg, and the oral gavage dose was 10.0 mg/kg. After administration, the whole blood was collected at the time points of 0.083 hours, 0.25 hours, 0.5 hours, 1.0 hour, 2.0 hours, 4.0 hours, 8.0 hours, 12.0 hours, and 24.0 hours. Plasma was prepared from the whole blood and analyzed for drug concentration by LC-MS/MS. Parameter meaning: Cmax is the maximum plasma concentration; AUC is the exposure; T1/2 is the half-life; Vd is the apparent volume of distribution; Cl is the clearance rate; F % is the oral bioavailability.

[9] = 30 min preincubation with NADPH
[10] = 30 min preincubation without NADPH

Human-GLP-1 receptor, sequence (P43220 24-463): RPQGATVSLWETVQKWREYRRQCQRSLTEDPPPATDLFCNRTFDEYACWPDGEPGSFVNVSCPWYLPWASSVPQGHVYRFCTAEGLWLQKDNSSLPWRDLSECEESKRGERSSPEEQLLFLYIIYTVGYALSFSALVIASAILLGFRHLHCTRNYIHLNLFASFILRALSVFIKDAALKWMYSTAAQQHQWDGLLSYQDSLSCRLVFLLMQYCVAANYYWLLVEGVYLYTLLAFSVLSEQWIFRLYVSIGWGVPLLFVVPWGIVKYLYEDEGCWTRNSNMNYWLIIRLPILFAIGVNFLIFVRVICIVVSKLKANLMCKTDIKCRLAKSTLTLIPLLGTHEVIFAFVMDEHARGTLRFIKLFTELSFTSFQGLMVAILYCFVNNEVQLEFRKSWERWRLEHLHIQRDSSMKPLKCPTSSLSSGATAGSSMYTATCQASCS
CYP2C19, sequence (P33261 whole entry): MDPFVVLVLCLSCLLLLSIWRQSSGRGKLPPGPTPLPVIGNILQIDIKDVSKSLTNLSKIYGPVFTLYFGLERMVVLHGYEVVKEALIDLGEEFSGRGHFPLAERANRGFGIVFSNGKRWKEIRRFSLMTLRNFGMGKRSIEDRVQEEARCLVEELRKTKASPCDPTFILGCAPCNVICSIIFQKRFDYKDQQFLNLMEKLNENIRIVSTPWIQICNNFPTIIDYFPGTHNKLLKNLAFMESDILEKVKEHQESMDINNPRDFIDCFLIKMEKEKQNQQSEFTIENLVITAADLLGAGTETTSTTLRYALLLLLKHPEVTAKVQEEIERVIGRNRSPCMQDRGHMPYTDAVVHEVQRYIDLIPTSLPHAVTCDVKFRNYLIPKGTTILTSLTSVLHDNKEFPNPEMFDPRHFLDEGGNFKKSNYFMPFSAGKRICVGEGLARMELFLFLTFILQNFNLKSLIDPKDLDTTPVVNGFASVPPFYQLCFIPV

| EC50 [1] | IC50 [2, 9] | IC50 [2, 10] | HMS Human [3] | HMS Cynomolgus monkeys [4] | HMS Dog [5] | HMS Rat [6] | Structure (SMILES) | other results |
| --- | --- | --- | --- | --- | --- | --- | --- | --- |
| 0.54 nM | – | – | – | – | – | – | C[C@]1(c2ccc(Cl)cn2)Oc2cccc(C3CCN(Cc4nc5sc(C(=O)O)c(F)c5n4C[C@@H]4CCO4)CC3)c2O1 (single isomer, unassigned) [Compound 001] | – |
| 0.88 nM | 29200 nM | > 50000 nM | <17.8 mL/min/kg | <23.0 mL/min/kg | 115.4 mL/min/kg | 138.7 mL/min/kg | C[C@]1(c2ccc(Cl)cn2)Oc2cccc(C3CCN(Cc4nc5sc(C(=O)O)cc5n4C[C@@H]4CCO4)CC3)c2O1 (single isomer, unassigned) [Compound 002] | F % ([7]; IV 1.0 mg/kg, PO 5.0 mg/kg): 27.1%; Cl ([7]; intravenous 1.0 mg/kg): 12.0 mL/min/kg; Vd ([7]; intravenous 1.0 mg/kg): 0.392 L/kg; AUC (PO) ([7]; oral gavage 5.0 mg/kg): 3.439 µM·h; T1/2 (PO) ([7]; oral gavage 5.0 mg/kg): 1.61 h; F % ([8]; IV 1.0 mg/kg, PO 2.0 mg/kg): 35.3%; Cl ([8]; intravenous 1.0 mg/kg): 0.505 mL/min/kg; Vd ([8]; intravenous 1.0 mg/kg): 0.155 L/kg; AUC (PO) ([8]; oral gavage 2.0 mg/kg): 42.966 µM·h; T1/2 (PO) ([8]; oral gavage 2.0 mg/kg): 11.3 h |
| 0.51 nM | > 50000 nM | > 50000 nM | 19.4 mL/min/kg | 41.6 mL/min/kg | 58.7 mL/min/kg | 5.1 mL/min/kg | C[C@@]1(c2ccc(Cl)cn2)Oc2cccc(N3CCN(Cc4nc5sc(C(=O)O)cc5n4C[C@H]4CCO4)CC3)c2O1 [Compound 003] | F % ([8]; IV 0.5 mg/kg, PO 10.0 mg/kg): 23.6%; Cl ([8]; intravenous 0.5 mg/kg): 2.85 mL/min/kg; Vd ([8]; intravenous 0.5 mg/kg): 0.489 L/kg; AUC (PO) ([8]; oral gavage 10.0 mg/kg): 10.716 µM·h; T1/2 (PO) ([8]; oral gavage 10.0 mg/kg): 8.52 h |
